The values below come from US12508237B2, “Pharmaceutical composition comprising 4-hexylresorcinol as active ingredient for prevention or treatment of bone disease” (KYUNGPOOK NATIONAL UNIVERSITY INDUSTRY-ACADEMIC COOPERATION …, priority 2019, dated 2025).

Assay [1] relates to osteoclasts. Nature of the assay: osteoclastic activity by Pit assay on bone slices. It is filed as cell-based, mouse. The settings on record: differentiated osteoclasts on bone slices, treated with 4-HR for 2 days. On the procedure:
Monocytes were sterilized and inoculated on bone slices placed on a 96-well plate, followed by culture for 3 days in the presence of RANKL (30 ng/ml) and M-CSF (30 ng/ml). After 3 days, the differentiated osteoclasts were treated with 4-hexylresorcinol (4-HR), and a culture was performed for 2 days. After 2 days of culture, osteoclasts were removed and bone slices were reacted with horseradish peroxidase-wheat germ agglutinin (Sigma-Aldrich) and then stained with 3,3′-diaminobenzidine (Sigma-Aldrich). Stained cells were analyzed according to the manufacturer's method using a Java-based image analysis program (ImageJ).
To evaluate the effect of 4-hexylresorcinol (4-HR) on the differentiation and activity of osteoclasts, 4-hexylresorcinol (4-HR) was treated on osteoclasts, and cell differentiation and osteoclastic activity were checked by TRAP staining and PIT assay analysis.

Assay [2] concerns osteoblasts (MC3T3-E1). As to the kind of experiment: osteoblast differentiation by alkaline phosphatase (ALP) and Alizarin red staining. The format is cell-based, mouse. The settings on record: MC3T3-E1 cells, 4-HR 10^−9 M to 10^−6 M (ALP, 7 days) or 10^−9 M to 10^−4 M (Alizarin red, 14-21 days). The procedure:
MC3T3-E1 (mouse calvaria osteoblast cell line) cells were cultured in α-MEM containing 10% (v/v) FBS, penicillin (100 units/ml), and streptomycin (100 units/ml) using a constant temperature and humidity incubator in the presence of 5% (v/v) CO2 at 37° C. When the culture dish was filled with osteoblasts with 100% confluency, 50 μg/ml of ascorbic acid and 10 mM of β-glycerophosphate were treated to induce cell differentiation. During cell differentiation, the differentiation medium was replaced every 3 days.
MC3T3-E1 and bone marrow stem cells were inoculated into a 48-well multi-plate at 5×10^4 cells/well, and culture was performed for 7 days with treatment of 4-hexylresorcinol (4-HR) at a concentration of 10^−9 M to 10^−6 M while a differentiation induction medium was replaced every 2 days. After the culture, cells were washed with PBS three times, and a fixative containing 5 ml of citrate acid, 13 ml of acetone, and 1.6 ml of a formaldehyde solution was treated for 45 seconds. Then, the cells were washed twice with PBS, treated with an alkaline-dye mixture, and reacted at room temperature in the darkness for 30 minutes. After removing the solution, cells were washed several times with PBS and observed under a microscope. […]

For assay [3], the system named is osteoclasts. As to the kind of experiment: osteoclast differentiation by TRAP staining. The format is cell-based. Also noted: dose or concentration left out as unconfirmed. Conditions: mouse bone marrow cells with M-CSF and RANKL, 4 days, 4-HR. The procedure: Mouse bone marrow monocyte (BMM) cells were isolated from the femur and tibia in 8-week-old mice. Muscle was removed after the separation of the femur and tibia from the mice euthanized by cervical dislocation, both ends were cut out, and α-MEM was filtered with a syringe to separate bone marrow cells. After centrifuging the isolated bone marrow cells, red blood cell lysis solution was added to hemolyze red blood cells, and then culture was performed for a day in the α-MEM containing 10% (v/v) FBS, penicillin (100 units/ml), and streptomycin (100 units/ml) using the constant temperature and humidity incubator in the presence of 5% (v/v) CO2 at 37° C. Only suspending cells not adhering to the culture dish were collected, treated with 20 ng/ml of M-CSF, and cultured for 3 days to obtain bone marrow-derived monocyte/macrophage. In an attempt to differentiate macrophages into osteoclasts, 20 ng/ml of M-CSF and 30 ng/ml of RANKL were treated, followed by culture for 4 days. Media were replaced every 2 days while differentiation was induced.
Medullary mononuclear cells isolated from the femur and tibia of mice were treated with 20 ng/ml of M-CSF and reacted for a day. […]

The subject of assay [4] is osteoporosis (OVX) induced mice. Nature of the assay: micro-CT analysis of femur bone in ovariectomy (OVX) osteoporosis mouse model after 4-HR ointment application. Conditions: ointment containing 2% 4-HR applied to dorsal skin for 4 weeks, compared to osteoporosis (OVX) induced mice. The format is in vivo. On the procedure: After separating the mouse femur and removing muscle, fixation was performed using 4% PFA at 4° C. for a day. The next day, washing was followed three times with PBS solution to be stored in PBS. The femur stored thereby was analyzed with a Skysan 1272 (Bruker, Massachusetts, USA) model by scanning, in units of 6 μm, the section from 1.6 mm to 2.3 mm below the growth plate. Using micro-CT, during the measurement of trabecular bone volume/tissue volume (BV/TV), trabecular thickness (Tb.Th), trabecular number (Tb.N), trabecular separation (Tb.Sp), and trabecular bone mineral density (BMD), bone volume/tissue volume (BV/TV) and bone mineral density (BMD) of cortical bone was measured as well.
To evaluate the effect of 4-hexylresorcinol (4-HR) on bone remodeling, the ointment containing 2% 4-HR was applied to the mouse dorsal skin for 4 weeks after induction of osteoporosis via ovariectomy (OVX) in a model with osteoporosis, and the change in bone volume was analyzed by micro-CT.

Assay [5] has as its system animal model with osteoporosis. Nature of the assay: blood biochemical analysis of bone resorption and bone formation markers (CTX, ALP, RANKL) in animal model with osteoporosis. The format is in vivo, mouse. Conditions: 4-HR periodically applied to the skin. The procedure:
To evaluate the effect of 4-hexylresorcinol (4-HR) on bone resorption and promoting bone formation, the levels of CTX, ALP, and RANKL in an animal model with osteoporosis were measured via blood biochemical analysis. CTX is used as a marker for evaluating the degree of bone resorption (bone destruction) in the blood, ALP is a marker that indicates the degree of bone formation secreted by osteoblasts, and RANKL is used as a marker that is secreted from osteoblasts and promotes differentiation of osteoclasts.

With `CCCCCCc1ccc(O)cc1O` [4-hexylresorcinol (4-HR), 4-hexylbenzene-1,3-diol], the “osteoclastic activity (PIT assay)” value in assay [1] is listed as “inhibited”. Also, in assay [2], the “differentiation of osteoblasts (ALP and Alizarin red staining)” value is on record as “differentiation was promoted”. Moreover, the “differentiation of osteoclasts (TRAP staining)” value in assay [3] is reported as “inhibited”. Also, in assay [4], the bone density entry is “increased”, the bone volume result is reported as “increased”, the trabecular number entry is “increased” and the trabecular thickness entry is listed as “increased”. Besides, in assay [5], the “level of ALP (bone formation marker in blood)” value is reported as “increased” and the “level of CTX (bone resorption marker in blood)” value is recorded as “decreased”.
